# Values quoted from earlier work as cited in EP4360619A1, “DOSAGE FORM FOR INTRA-ARTICULAR INJECTION […] AN […] IN THE TREATMENT OF CRYSTAL-AND NON-CRYSTAL […] IN[…]” (PK MED, priority 2022, dated 2024).
# Conditions: literature (E.Niel et al)
compound,measurement,value
"COc1cc2c(c(OC)c1OC)-c1ccc(OC)c(=O)cc1[C@@H](NC(C)=O)CC2 [colchicine, N-[(7S)-1,2,3,10-tetramethoxy-9-oxo-6,7-dihydro-5H-benzo[a]heptalen-7-yl]acetamide]",lethal dose,0.8 mg/kg
same,toxicity limit,0.1 mg/kg
